Data reported in patent US6346543B1, “Use of a taxoid to treat abnormal cell proliferation in the brain” (priority 1998, dated 2002).
Values joined by “and” are separate entries in the source; they are usually repeats but may differ in a detail not shown here. Identical values can stand only once.

How the values were obtained:
[1] = test system: intracranially implanted human glioblastoma U251; test: Antitumor activity against intracranially implanted U251 glioblastoma in NCr-nu mice (RP-36); type: in vivo; details: for DAYS OF DEATH: individual animals
Method: The treatment schedule of the intracranially implanted U251 glioblastoma cells was iv, once daily, every sixth day for three treatments (q6d×3), beginning on day four post-implant. […] For the intracranially implanted studies, the compounds were evaluated based on their ability to increase the life span of the animals. The positive control used for both of these tumor models was nitrosourea.
The oversight committee was the Southern Research Institutional Animal Care and Use Committee; the protocol used was IACUC No. 96-8-50.
(§1) Product (Ia) was prepared in 5% ethanol, 5% tween 80, 90% D5W
(§2) Product (Ia) was administered in 0.4 ml/mouse based on a total body weight average.
(§3) Nitrosourea was administered 0.1 ml/10 g of body weight.
(§4) Any intracranially implanted animal that appeared to be moribund was euthanized for humane purposes. Since efficacy studies fall within this category of basic research, experiment termination was based on resultants that were determined to be optimal.
Six to eight week old athymic NCr-nu female mice were used for the intracranially implanted U251 trials.
The cells were injected into the cerebrum to the right of the midline with a 25 gauge, ⅜ inch, stainless steel needle. Cultured cells were used for the U251 experiment (RP-36). The treatment schedule was q6d×3, iv, beginning on day four, post-implant. […] The treatment schedule was q4d×3, iv, beginning on day two, post-implant. Nitrosourea was given in each experiment for comparative purposes because of its known activity against CNS tumors.

[2] = test system: intracranially implanted human glioblastoma SF-295; test: Antitumor activity against intracranially implanted SF-295 glioblastoma in NCr-nu mice (RP-38); type: in vivo; details: for DAYS OF DEATH: individual animals
Description: Four studies were initiated to evaluate the response of U251 and SF-295 glioblastomas to treatment with product (Ia). In the two studies, U251 and SF-295 glioblastomas were initiated from intracranially implanted cells at a volume of 10^6 cells per mouse. The treatment schedule of the intracranially implanted U251 glioblastoma cells was iv, once daily, every sixth day for three treatments (q6d×3), beginning on day four post-implant. The treatment schedule of the intracranially implanted SF-295 glioblastoma cells was iv, once daily, every fourth day for three treatments (q4d×3), beginning on day two post-implant. For the intracranially implanted studies, the compounds were evaluated based on their ability to increase the life span of the animals. The positive control used for both of these tumor models was nitrosourea.
In these experiments, general DCTD, NCI techniques and procedures for in vivo efficacy studies were modified for special application (In Vivo Cancer Models, NIH Publication No. 84-2635, 1984). These studies were conducted in approved facilities (AAALAC Registration No. 000643, AALAS Membership No. 840723001, USDA Registration No. 64-R-001, OPPR, PHS, NIH, AWA, Assurance No. A3046-01). These facilities are ISO 9001 certified. The oversight committee was the Southern Research Institutional Animal Care and Use Committee; the protocol used was IACUC No. 96-8-50.
as §1
Nitrosourea was prepared in 2% ethanol, 98% physiological saline.
as §2, §3, §4
Six to eight week old athymic NCr-nu female mice were used for the intracranially implanted U251 trials. Six to eight week old athymic NCr-nu male mice were used for the intracranially implanted SF-295 trials.
As previously mentioned, this experiment was designed to evaluate the activity of product (Ia) against intracranially U251 and SF-295 glioblastomas in athymic MCr-nu mice. The dosages for product (Ia) were 30, 20 and 13.4 mg/kg/dose. For the two intracranially implanted experiments, cells were prepared at a concentration of 3.33×10^7 cells per ml of media and injected at a volume of 0.03 ml per mouse. The cells were injected into the cerebrum to the right of the midline with a 25 gauge, ⅜ inch, stainless steel needle. Cultured cells were used for the U251 experiment (RP-36). The treatment schedule was q6d×3, iv, beginning on day four, post-implant. A tumor brei, made from solid tumor, was used for the SF-295 experiment (RP-38). The treatment schedule was q4d×3, iv, beginning on day two, post-implant. Nitrosourea was given in each experiment for comparative purposes because of its known activity against CNS tumors. The dosages were 27, 18 and 12 mg/kg/dose and the treatment schedule was the same as the treatment schedule for product (Ia) in each experiment.

[3] = 18.0 mg/kg/dose IV Q6D×3(4), listed as nitrosourea
[4] = 18.0 mg/kg/dose IV Q4D×3(2), listed as nitrosourea
[5] = 27.0 mg/kg/dose IV Q4D×3(2), listed as nitrosourea

NC(=O)NN=O [Nitrosourea, reference compound]
122-DAY SURV./TOTAL ([1]; 12.0 mg/kg/dose IV Q6D×3(4)): 0/10 | % ILS ([1]; 12.0 mg/kg/dose IV Q6D×3(4)): +51% | MEDIAN DAY OF DEATH ([1]; 12.0 mg/kg/dose IV Q6D×3(4)): 51.5 days | DAYS OF DEATH ([1]; 12.0 mg/kg/dose IV Q6D×3(4)): 69 day (2×) and 80 day and 41 day and 45 day and 49 day (3×) and 54 day and 66 day | % ILS ([1]; 12.0 mg/kg/dose IV Q6D×3(4), listed as nitrosourea): 51% | 122-DAY SURV./TOTAL ([1]; 18.0 mg/kg/dose IV Q6D×3(4)): 7/10 | % ILS ([1]; 18.0 mg/kg/dose IV Q6D×3(4)): +205% | MEDIAN DAY OF DEATH ([1]; 18.0 mg/kg/dose IV Q6D×3(4)): 104.0 days | DAYS OF DEATH ([1]; 18.0 mg/kg/dose IV Q6D×3(4)): 94 day and 104 day (2×) | 122-DAY SURV./TOTAL [1, 3]: seven of ten | % ILS [1, 3]: 205% | 122-DAY SURV./TOTAL ([1]; 27.0 mg/kg/dose IV Q6D×3(4)): 10/10 | 122-DAY SURV./TOTAL ([1]; 27.0 mg/kg/dose IV Q6D×3(4), listed as nitrosourea): ten of ten | MTD ([1]; iv q6d×3, U251 experiment RP-36): 27 mg/kg/dose | 68 DAY SURV./TOTAL ([2]; 12.0 mg/kg/dose IV Q4D×3(2)): 0/10 | % ILS ([2]; 12.0 mg/kg/dose IV Q4D×3(2)): +106% | MEDIAN DAY OF DEATH ([2]; 12.0 mg/kg/dose IV Q4D×3(2)): 33.0 days | DAYS OF DEATH ([2]; 12.0 mg/kg/dose IV Q4D×3(2)): 33 day (5×) and 40 day and 22 day and 23 day and 26 day (2×) | % ILS ([2]; 12.0 mg/kg/dose IV Q4D×3(2), listed as nitrosourea): 106% | 68 DAY SURV./TOTAL ([2]; 18.0 mg/kg/dose IV Q4D×3(2)): 1/10 | % ILS ([2]; 18.0 mg/kg/dose IV Q4D×3(2)): +131% | MEDIAN DAY OF DEATH ([2]; 18.0 mg/kg/dose IV Q4D×3(2)): 37.0 days | DAYS OF DEATH ([2]; 18.0 mg/kg/dose IV Q4D×3(2)): 40 day and 41 day and 33 day and 34 day (2×) and 35 day and 37 day (3×) | 68 DAY SURV./TOTAL [2, 4]: one 68-day survivor out of ten animals | % ILS [2, 4]: 131% | 68 DAY SURV./TOTAL ([2]; 27.0 mg/kg/dose IV Q4D×3(2)): 2/10 | % ILS ([2]; 27.0 mg/kg/dose IV Q4D×3(2)): +50% | MEDIAN DAY OF DEATH ([2]; 27.0 mg/kg/dose IV Q4D×3(2)): 24.0 days | DAYS OF DEATH ([2]; 27.0 mg/kg/dose IV Q4D×3(2)): 64 day and 15 day and 16 day (2×) and 19 day and 29 day and 37 day and 56 day | 68 DAY SURV./TOTAL [2, 5]: two 68-day survivors out of ten animals | % ILS [2, 5]: 50% | MTD ([2]; in vivo, iv): 27 mg/kg/dose
